{"source": "patent US11660287B2", "about": "“Agent for preventing or treating spinocerebellar ataxia” (FUJIFILM Toyama Chemical Co., Ltd., priority 2017, dated 2023)", "test_system": "Mild to Moderate AD Patients", "assay": "Phase II placebo-controlled trial: change in brain volume by volumetric MRI (vMRI) at week 52", "assay_type": "in vivo, human", "details": "for Change in hippocampus volume, least square means (standard error) / Change in whole brain volume, least square means (standard error): mixed-effect model", "from_the_text": "Test Example 1 Multicenter Randomized Double-Blind Phase II Placebo-Controlled Trial for Assessing Effectiveness and Safety of Compound A in Mild to Moderate AD Patients\nSubject (selection criteria): Patients were screened in a period from 42 days before treatment assignment to the assignment based on the following selection criteria.\n• Patients who were probable AD and are 55 years old or older and 85 years old or younger at the time of obtaining consent of screening. • Patients with an MMSE score of 12 to 22 at the time of screening • Patients with a Modified Hachinski Ischemia Scale score of 4 or less • Patients who have been treated with a donepezil hydrochloride or rivastigmine transdermal system for at least 4 months before the baseline and with a stable dose thereof for 3 months before the baseline. • In the case of patients who have received memantine in addition to being treated with a donepezil hydrochloride or rivastigmine transdermal system, patients who have been treated with memantine for at least 4 months before the baseline and with a stable dose thereof for 3 months before the baseline. • Patients whose brain MRI or CT results match AD at the time of screening Organization of groups: Patients matched (484 patients) were randomly divided into the following 3 groups and the trial was started. (1) High dose group: 224 mg of a test compound (160 mg in terms of Compound A) was orally administered once a day for 4 weeks and then 448 mg of a test compound (320 mg in terms of Compound A) was orally administered once a day for 48 weeks (158 patients) (2) Low dose group: 224 mg of a test compound (160 mg in terms of Compound A) was orally administered once a day for 52 weeks (166 patients) (3) Placebo group: placebo was orally administered once a day for 52 weeks (158 patients) Method of Assessment: Volumetric MRI\nBrain volume of subjects was measured by vMRI scan at the screening and after 52 weeks, and the volume change of the whole brain and the hippocampus of the subjects were quantified to assess brain atrophy based on the change from the screening.\nFurthermore, volume change of the whole brain and 101 areas (obtained by dividing the areas existing in both the left brain and the right brain of the Brodmann areas (1 to 52) into 101 areas) in each subject was quantified to assess brain atrophy based on the change from the screening.\nChanges in the volume of the whole brain and the hippocampus after 52 weeks from the baseline were compared between the high dose group and the placebo group, and between the low dose group and the placebo group based on Mixed-effect Models. For models, the treatment groups were included as a fixed effect, age, baseline of the respective brain volumes (the whole brain or the hippocampus), baseline of MMSE and ApoE4 genotype (positive/negative) were included as covariates, and trial sites were included as a random effect.\nFurthermore, changes in the respective volumes of the whole brain and the 101 areas after 52 weeks from the baseline were compared between the high dose group and the placebo group, and between the low dose group and the placebo group.", "key": {"[1]": {"details": "High dose group (160 mg for 4 weeks, then 320 mg in terms of Compound A, oral once a day, for 48 weeks), week 52 vs baseline, vMRI"}, "[2]": {"details": "Low dose group (160 mg in terms of Compound A, oral once a day, 52 weeks), week 52 vs baseline, vMRI"}}}
{"smiles": "OC1CN(CCCOCCc2ccc3sccc3c2)C1", "note": "[Compound A, 1-(3-(2-(1-benzothiophen-5-yl)ethoxy)propyl)azetidin-3-ol]", "values": [{"measurement": "Change in the volume of the whole brain and the hippocampus compared with placebo group (in words)", "setting": "Compound A group vs placebo group, week 52 from baseline", "value": "volume reduction tended to be smaller"}, {"measurement": "Volume reduction of the cerebellum compared to the placebo group (in words)", "setting": "Compound A high dose group", "value": "same tendency as in the low dose group was observed"}, {"measurement": "Difference in effects on the change in hippocampal volume vs placebo group (in words)", "setting": "Compound A low dose group vs placebo group, week 52", "value": "statistically significant"}, {"measurement": "Volume reduction of the cerebellum compared to the placebo group (in words)", "setting": "Compound A low dose group, whole brain and 101 areas, Nos. 1, 2, 4 and 8 in Table 2", "value": "particularly tended to be suppressed"}, {"measurement": "Change in hippocampus volume, least square means (standard error)", "setting": "[1]", "value": "−0.31(0.057) mL"}, {"measurement": "Change in whole brain volume, least square means (standard error)", "setting": "[1]", "value": "−20.05(3.821) mL"}, {"measurement": "Change in hippocampus volume, difference from placebo group (95% confidence interval)", "setting": "High dose group, week 52 vs baseline, p-value 0.0996", "value": "0.08(−0.02, 0.18) mL"}, {"measurement": "Change in whole brain volume, difference from placebo group (95% confidence interval)", "setting": "High dose group, week 52 vs baseline, p-value 0.2581", "value": "3.94(−2.91, 10.79) mL"}, {"measurement": "Change in hippocampus volume, least square means (standard error)", "setting": "[2]", "value": "−0.27(0.053) mL"}, {"measurement": "Change in whole brain volume, least square means (standard error)", "setting": "[2]", "value": "−21.37(3.582) mL"}, {"measurement": "Change in hippocampus volume, difference from placebo group (95% confidence interval)", "setting": "Low dose group, week 52 vs baseline, p-value 0.0106", "value": "0.12(0.03, 0.22) mL"}, {"measurement": "Change in whole brain volume, difference from placebo group (95% confidence interval)", "setting": "Low dose group, week 52 vs baseline, p-value 0.4456", "value": "2.63(−4.15, 9.40) mL"}, {"measurement": "Change in brain volume, mean value: ctx-lh-parsorbitalis", "setting": "Low dose group, week 52 vs baseline, vMRI, placebo −0.5499, p 0.0323", "value": 0.1244}, {"measurement": "Change in brain volume, mean value: Left-Cerebellum-Cortex", "setting": "Low dose group, week 52 vs baseline, vMRI, placebo −0.6899, p 0.0005", "value": "−0.2695"}, {"measurement": "Change in brain volume, mean value: Right-Cerebellum-Cortex", "setting": "Low dose group, week 52 vs baseline, vMRI, placebo −0.7248, p 0.0090", "value": "−0.3209"}, {"measurement": "Change in brain volume, mean value: Right-Cerebral-White-Matte", "setting": "Low dose group, week 52 vs baseline, vMRI, placebo −1.4416, p 0.0157", "value": "−1.0753"}, {"measurement": "Change in brain volume, mean value: ctx-rh-lateral orbitofrontal", "setting": "Low dose group, week 52 vs baseline, vMRI, placebo −1.5322, p 0.0146", "value": "−0.8995"}, {"measurement": "Change in brain volume, mean value: Left-Cerebral-White-Matter", "setting": "Low dose group, week 52 vs baseline, vMRI, placebo −1.5679, p 0.0215", "value": "−1.2418"}, {"measurement": "Change in brain volume, mean value: Whole_brain", "setting": "Low dose group, week 52 vs baseline, vMRI, placebo −1.5952, p 0.0054", "value": "−1.3142"}, {"measurement": "Change in brain volume, mean value: Right-Cerebellum-White-Matter", "setting": "Low dose group, week 52 vs baseline, vMRI, placebo −1.6919, p 0.0014", "value": "−0.89"}, {"measurement": "Change in brain volume, mean value: Left-Cerebellum-White-Matter", "setting": "Low dose group, week 52 vs baseline, vMRI, placebo −2.0490, p 0.0001", "value": "−0.9201"}, {"measurement": "Change in brain volume, mean value: ctx-lh-insula", "setting": "Low dose group, week 52 vs baseline, vMRI, placebo −2.6470, p 0.0030", "value": "−1.9609"}, {"measurement": "Change in brain volume, mean value: ctx-rh-insula", "setting": "Low dose group, week 52 vs baseline, vMRI, placebo −2.6510, p 0.0056", "value": "−1.9976"}, {"measurement": "Change in brain volume, mean value: ctx-rh-superior temporal", "setting": "Low dose group, week 52 vs baseline, vMRI, placebo −2.9861, p 0.0013", "value": "−2.1332"}, {"measurement": "Change in brain volume, mean value: Left-Hippocampus", "setting": "Low dose group, week 52 vs baseline, vMRI, placebo −3.0880, p 0.0232", "value": "−2.3402"}, {"measurement": "Change in brain volume, mean value: ctx-rh-inferior temporal", "setting": "Low dose group, week 52 vs baseline, vMRI, placebo −3.2601, p 0.0124", "value": "−2.6157"}, {"measurement": "Change in brain volume, mean value: ctx-lh-entorhinal", "setting": "Low dose group, week 52 vs baseline, vMRI, placebo −3.8173, p 0.0195", "value": "−2.97"}]}
